Test results from publication PMC7057854, “Adapting free energy perturbation simulations for large macrocyclic ligands: how to dissect contributions from direct binding and free ligand flexibility” (Chemical Science, 2020).

Legend:
[1] = HPLC-based LogD determination; conditions: for tR (retention time used for LogD determination): HPLC-UV 254 nm, Nucleodur C18 Gravity, 50 mM ammonium acetate pH 7.4 (A) / acetonitrile (B), 0 min 0 % B to 20 min 95 % B, 1 mL/min, acetylated peptides, triplicates
[2] = parameters: method as in earlier work; conditions: octanol-water partitioning, received from literature; ref 3–5 (supplement); cited from earlier work
From the text: page 19: Table S8: Reference compounds used to establish a calibration curve for LogD determination.

[3] = target: T1, 14-3-3ζ full length His-tag (Homo sapiens, UniProt P63104); test: biochemical; format: binding; conditions: for BEI (binding efficiency index): BEI = pKd/(MW × 10^–3), pKd from direct FP of FITC-labelled peptides
T1 sequence (P63104 1-245): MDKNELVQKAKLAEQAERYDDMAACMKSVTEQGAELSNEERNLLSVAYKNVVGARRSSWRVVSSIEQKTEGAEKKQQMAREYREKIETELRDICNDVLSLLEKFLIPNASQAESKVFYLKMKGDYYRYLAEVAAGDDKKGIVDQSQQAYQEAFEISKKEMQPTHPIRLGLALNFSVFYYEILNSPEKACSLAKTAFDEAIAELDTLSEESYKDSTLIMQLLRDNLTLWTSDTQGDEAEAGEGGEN

[4] = target: T1, 14-3-3ζ full length His-tag; test: biochemical

| Structure (SMILES) | tR (retention time used for LogD determination) [1] [min] | Kd [3] [nM] | chromatographic logD ([1]; pH 7.4) | also measured |
| --- | --- | --- | --- | --- |
| COc1ccc([C@@H]2Sc3ccccc3N(CCN(C)C)C(=O)[C@@H]2OC(C)=O)cc1 [Diltiazem, reference compound] | 15.31±0.002 | – | – | LogD of reference compound [2]: 2.70 |
| CC(CCc1ccccc1)NCC(O)c1ccc(O)c(C(N)=O)c1 (stereo not drawn) [Labetolol, reference compound] | 12.14±0.010 | – | – | – |
| COCCc1ccc(OCC(O)CNC(C)C)cc1 (stereo not drawn) [Metoprolol, reference compound] | 10.21±0.024 | – | – | LogD of reference compound [2]: -0.06 |
| CC(C)C[C@H](NC(=O)[C@H](CC(=O)O)NC(=O)[C@H](CC(C)C)NC(=O)[C@]1(C)CCCCCCCC[C@@](C)(NC(=O)CNC(=O)[C@H](CCC(N)=O)NC(=O)COCCOCCNC(=S)Nc2ccc3c(c2)C(=O)OC32c3ccc(O)cc3Oc3cc(O)ccc32)C(=O)N[C@@H](CC(C)C)C(=O)N[C@@H](CC(=O)O)C(=O)N1)C(=O)N[C@@H](C)C(=O)N[C@@H](C)C(N)=O [S430A] | – | 72 ± 5 | – | – |
| CC(=O)N[C@@H](CCC(N)=O)C(=O)NCC(=O)N[C@]1(C)CCCCCCCC[C@@](C)(C(=O)N[C@@H](CC(C)C)C(=O)N[C@@H](CC(=O)O)C(=O)N[C@@H](CC(C)C)C(=O)N[C@@H](C)C(=O)N[C@@H](CO)C(N)=O)NC(=O)[C@H](CC(=O)O)NC(=O)[C@H](CC(C)C)NC1=O [compound 1] | 12.58±0.197 | – | 1.15 ± 0.068 | – |
| CC(C)C[C@H](NC(=O)[C@H](CC(=O)O)NC(=O)[C@H](CC(C)C)NC(=O)[C@]1(C)CCCCCCCC[C@@](C)(NC(=O)CNC(=O)[C@H](CCC(N)=O)NC(=O)COCCOCCNC(=S)Nc2ccc3c(c2)C(=O)OC32c3ccc(O)cc3Oc3cc(O)ccc32)C(=O)N[C@@H](CC(C)C)C(=O)N[C@@H](CC(=O)O)C(=O)N1)C(=O)N[C@@H](C)C(N)=O [compound 2] | – | 355 | – | BEI (binding efficiency index) [3]: 4.07 |
| CC(C)C[C@H](NC(=O)[C@H](CC(=O)O)NC(=O)[C@H](CC(C)C)NC(=O)[C@]1(C)CCCCCCCC[C@@](C)(NC(=O)CNC(=O)[C@H](CCC(N)=O)NC(=O)COCCOCCNC(=S)Nc2ccc3c(c2)C(=O)OC32c3ccc(O)cc3Oc3cc(O)ccc32)C(=O)N[C@@H](CC(C)C)C(=O)N[C@@H](CC(=O)O)C(=O)N1)C(N)=O [compound 3] | – | 2880 | – | BEI (binding efficiency index) [3]: 3.66 |
| CC(C)C[C@@H]1NC(=O)[C@](C)(NC(=O)CNC(=O)[C@H](CCC(N)=O)NC(=O)COCCOCCNC(=S)Nc2ccc3c(c2)C(=O)OC32c3ccc(O)cc3Oc3cc(O)ccc32)CCCCCCCC[C@@](C)(C(=O)N[C@@H](CC(C)C)C(=O)N[C@@H](CC(=O)O)C(N)=O)NC(=O)[C@H](CC(=O)O)NC1=O [compound 4] | – | > 100000 | – | BEI (binding efficiency index) [3]: 2.86 |
| CC(=O)NCC(=O)N[C@]1(C)CCCCCCCC[C@@](C)(C(=O)N[C@@H](CC(C)C)C(=O)N[C@@H](CC(=O)O)C(=O)N[C@@H](CC(C)C)C(N)=O)NC(=O)[C@H](CC(=O)O)NC(=O)[C@H](CC(C)C)NC1=O [compound 5] | 12.75±0.003 | – | 1.26 | Δlog D relative to 7 (H/H) ([1]; pH 7.4): 0.63 |
| CC(C)C[C@H](NC(=O)[C@H](CC(=O)O)NC(=O)[C@H](CC(C)C)NC(=O)[C@]1(C)CCCCCCCC[C@@](C)(NC(=O)COCCOCCNC(=S)Nc2ccc3c(c2)C(=O)OC32c3ccc(O)cc3Oc3cc(O)ccc32)C(=O)N[C@@H](CC(C)C)C(=O)N[C@@H](CC(=O)O)C(=O)N1)C(N)=O [compound 6] | – | 12300 | – | BEI (binding efficiency index) [3]: 3.70 |
| CC(=O)NCC(=O)N[C@@H]1CCCCCCCC[C@@H](C(=O)N[C@@H](CC(C)C)C(=O)N[C@@H](CC(=O)O)C(=O)N[C@@H](CC(C)C)C(N)=O)NC(=O)[C@H](CC(=O)O)NC(=O)[C@H](CC(C)C)NC1=O [compound 7] | 11.70±0.007 | – | 0.63 ± 0.019 | – |
| CC(=O)NCC(=O)N[C@@H]1CCCCCCCC[C@@](C)(C(=O)N[C@@H](CC(C)C)C(=O)N[C@@H](CC(=O)O)C(=O)N[C@@H](CC(C)C)C(N)=O)NC(=O)[C@H](CC(=O)O)NC(=O)[C@H](CC(C)C)NC1=O [compound 8] | 12.37±0.003 | – | – | LogD ([1]; pH 7.4): 1.03±0.031 |
| CC(=O)NCC(=O)N[C@]1(C)CCCCCCCC[C@@H](C(=O)N[C@@H](CC(C)C)C(=O)N[C@@H](CC(=O)O)C(=O)N[C@@H](CC(C)C)C(N)=O)NC(=O)[C@H](CC(=O)O)NC(=O)[C@H](CC(C)C)NC1=O [compound 9] | 12.35±0.003 | – | 1.01 ± 0.031 | Ki [4]: > 31600 nM |
| CC[C@@]1(C(=O)N[C@@H](CC(C)C)C(=O)N[C@@H](CC(=O)O)C(=O)N[C@@H](CC(C)C)C(N)=O)CCCCCCCC[C@@](C)(NC(=O)CNC(C)=O)C(=O)N[C@@H](CC(C)C)C(=O)N[C@@H](CC(=O)O)C(=O)N1 [compound 10] | 12.78±0.009 | – | 1.28 ± 0.04 | – |
| CC[C@@]1(NC(=O)CNC(C)=O)CCCCCCCC[C@@](C)(C(=O)N[C@@H](CC(C)C)C(=O)N[C@@H](CC(=O)O)C(=O)N[C@@H](CC(C)C)C(N)=O)NC(=O)[C@H](CC(=O)O)NC(=O)[C@H](CC(C)C)NC1=O [compound 11] | 12.88±0.003 | – | 1.33 ± 0.041 | – |
| CC[C@@]1(NC(=O)CNC(C)=O)CCCCCCCC[C@@](CC)(C(=O)N[C@@H](CC(C)C)C(=O)N[C@@H](CC(=O)O)C(=O)N[C@@H](CC(C)C)C(N)=O)NC(=O)[C@H](CC(=O)O)NC(=O)[C@H](CC(C)C)NC1=O [compound 12] | 12.92±0.001 | – | 1.35 | Δlog D relative to 5 (Me/Me) ([1]; pH 7.4): 0.09 |
